According to patent publication US20230174530A1, “N-(PHENYLAMINOCARBONYL) TETRAHYDRO-ISOQUINOLINES AND RELATED COMPOUNDS AS MODULATORS OF GPR65” (PATHIOS THERAPEUTICS LIMITED, priority 2020, published 2023):

Biological target: T1, human recombinant GPR65 (Homo sapiens, UniProt Q8IYL9)
T1 construct: host or cells: 1321N1 human astrocytoma cells (1321N1-hrGPR65)
Experiment: Human GPR65 cAMP HTRF antagonist assay
Format: cell-based
Details: 1321N1-hrGPR65 cells stimulated at assay pH 7.2; suppression of cAMP rise; read-out: hGPR65 IC50
Protocol: Human GPR65 Cyclic Adenosine Monophosphate (cAMP) Homogeneous Time Resolved Fluorescence (HTRF) Antagonist Assay Procedure
IC50 data was obtained by the following procedure:
1321N1 human astrocytoma cells stably expressing human recombinant GPR65 (1321N1-hrGPR65 cells, EuroscreenFast) were cultured according to the vendor's instructions.
Compounds were tested for their ability to antagonise GPR65, through measuring the concentration of cytoplasmic cAMP following treatment of the cells at a pH of 7.2 to activate GPR65 signalling and addition of the compound to be tested. The extent to which the expected rise in cAMP concentration upon GPR65 activation was suppressed by the added compound is indicative of its potency. The assay was carried out according to EuroscreenFast assay methodology as follows.
On the day of the assay, test compounds were added to 384-well, low volume, white microtiter plates by acoustic dispensing. KRH buffer (5 mM KCl, 1.25 mM MgSO4, 124 mM NaCl, 25 mM HEPES, 13.3 mM Glucose, 1.25 mM KH2PO4 and 1.45 mM CaCl2) was adjusted to pH 6.5, pH 7.6 and pH 8.4 by adding NaOH. 1321N1-hGPR65 cells were rapidly thawed and diluted in KRH, pH 7.6 prior to centrifugation at 300×g for 5 min and resuspension in assay buffer (KRH, pH 7.6, supplemented with 1 mM 3-isobutyl-1-methylxanthine (IBMX) and 200 μM ethylenediaminetetraacetic acid (EDTA)). Cells were added to assay plates at a density of 2,000 cells per well in a volume of 5 μl. Assay plates were briefly centrifuged at 100×g and then incubated at room temperature for 30 min. Cells were stimulated by the addition of 5 μL KRH, pH 6.5, to achieve an assay pH of 7.2, while control wells received 5 μl KRH, pH 8.4 to achieve an assay pH of 7.9. Assay plates were briefly centrifuged at 100×g and then incubated at room temperature for 30 min.
Accumulation of cAMP was detected by cAMP HTRF kit (Cisbio). d2-labeled cAMP and cryptate-labeled anti-cAMP antibody in Lysis and Detection Buffer (Cisbio) were added to assay plates, and the plates were incubated at room temperature for 1 h. HTRF measurements were performed using a Pherastar FSX instrument. Acceptor and donor emission signals were measured at 665 nm and 620 nm, respectively, and HTRF ratios were calculated as signal665 nm/signal620 nm×10^4. Data were normalised to high and low control values and fitted with 4-parameter logistic regression to determine hGPR65 IC50 values for the test compounds, which are shown in Table 1.

T1 sequence (Q8IYL9 whole entry): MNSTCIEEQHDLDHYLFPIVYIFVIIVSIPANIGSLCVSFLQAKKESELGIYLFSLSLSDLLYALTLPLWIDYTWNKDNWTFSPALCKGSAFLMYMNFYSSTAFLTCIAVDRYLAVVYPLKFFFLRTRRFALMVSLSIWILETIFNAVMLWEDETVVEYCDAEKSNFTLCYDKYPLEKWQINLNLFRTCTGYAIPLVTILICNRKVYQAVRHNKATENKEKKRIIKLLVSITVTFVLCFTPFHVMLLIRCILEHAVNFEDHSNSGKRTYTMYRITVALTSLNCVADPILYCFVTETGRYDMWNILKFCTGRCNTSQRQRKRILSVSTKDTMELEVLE

| Compound | IC50 |
| --- | --- |
| O=C(Nc1ccc(C(F)(F)F)c(Cl)c1)N1CCc2ccnc(Cl)c2C1 [Compound 97, 8-Chloro-N-(3-chloro-4-(trifluoromethyl)phenyl)-3,4-dihydro-2,7-naphthyridine-2(1H)-carboxamide] | > 5 µM |
| O=C(Nc1cc(Cl)c(Cl)cc1C(F)(F)F)N1CCc2cc(=O)[nH]cc2C1 [Compound 130, N-(4,5-Dichloro-2-(trifluoromethyl)phenyl)-6-oxo-3,4,6,7-tetrahydro-2,7-naphthyridine-2(1H)-carboxamide] | > 5 µM |
| O=C(Nc1ccc(Cl)c(C(F)(F)F)c1)N1CCc2cccc(F)c2C1 [Compound 46, N-(4-Chloro-3-(trifluoromethyl)phenyl)-8-fluoro-3,4-dihydroisoquinoline-2(1H)-carboxamide] | > 5 µM |
| O=C(Nc1ccc(Cl)c(Cl)c1)N1CCc2cc(-c3cccs3)ccc2C1 [Compound 127, N-(3,4-Dichlorophenyl)-6-(thiophen-2-yl)-3,4-dihydroisoquinoline-2(1H)-carboxamide] | > 5 µM |
| COc1cc2c(cn1)CCN(C(=O)Nc1ccc(C(F)(F)F)c(Cl)c1)C2 [Compound 107, N-(3-Chloro-4-(trifluoromethyl)phenyl)-7-methoxy-3,4-dihydro-2,6-naphthyridine-2(1H)-carboxamide] | > 5 µM |
| Cn1cc2c(cc1=O)CCN(C(=O)Nc1ccc(Cl)c(Cl)c1)C2 [Compound 92, N-(3,4-Dichlorophenyl)-7-methyl-6-oxo-3,4,6,7-tetrahydro-2,7-naphthyridine-2(1H)-carboxamide] | > 5 µM |
| Nc1cc2c(cn1)CN(C(=O)Nc1ccc(Cl)c(Cl)c1)CC2 [Compound 84, 6-Amino-N-(3,4-dichlorophenyl)-3,4-dihydro-2,7-naphthyridine-2(1H)-carboxamide] | > 5 µM |
| Cc1cccc2c1CN(C(=O)Nc1ccc(Cl)c(C(F)(F)F)c1)CC2 [Compound 28, N-(4-Chloro-3-(trifluoromethyl)phenyl)-8-methyl-3,4-dihydroisoquinoline-2(1H)-carboxamide] | > 5 µM |
| O=C(Nc1ccc(C(F)(F)F)c(Cl)c1)N1CCc2cncnc2C1 [Compound 9, N-(3-Chloro-4-(trifluoromethyl)phenyl)-5,8-dihydropyrido[3,4-d]pyrimidine-7(6H)-carboxamide] | > 5 µM |
| O=C(Nc1ccc(Cl)c(Cl)c1)N1CCc2cc(O)ccc2C1 [Compound 95, N-(3,4-Dichlorophenyl)-6-hydroxy-3,4-dihydroisoquinoline-2(1H)-carboxamide] | > 5 µM |
| CS(=O)(=O)c1ccc2c(c1)CCN(C(=O)Nc1ccc(C(F)(F)F)c(Cl)c1)C2 [Compound 124, N-(3-Chloro-4-(trifluoromethyl)phenyl)-6-(methylsulfonyl)-3,4-dihydroisoquinoline-2(1H)-carboxamide] | > 5 µM |
| O=C(Nc1ccc(C(F)(F)F)cc1)N1CCc2ncncc2C1 [Compound 4, N-(4-(Trifluoromethyl)phenyl)-7,8-dihydropyrido[4,3-d]pyrimidine-6(5H)-carboxamide] | > 5 µM |
| O=C(Nc1ccc(Cl)c(Cl)c1)N1CCc2c[nH]c(=O)cc2C1 [Compound 99, N-(3,4-Dichlorophenyl)-7-oxo-3,4,6,7-tetrahydro-2,6-naphthyridine-2(1H)-carboxamide] | > 5 µM |
| Cc1ccc2c(c1)CN(C(=O)Nc1ccc(Cl)c(Cl)c1)CC2 [Compound 34, N-(3,4-Dichlorophenyl)-7-methyl-3,4-dihydroisoquinoline-2(1H)-carboxamide] | > 5 µM |
| O=C(Nc1ccc(Cl)c(C(F)(F)F)c1)N1CCc2ncncc2C1 [Compound 5, N-(4-Chloro-3-(trifluoromethyl)phenyl)-7,8-dihydropyrido[4,3-d]pyrimidine-6(5H)-carboxamide] | 0.5 to 5 µM |

Results, then the compound that gave them:

| IC50 | Compound |
| --- | --- |
| 0.5 to 5 µM | O=C(Nc1ccc(C(F)(F)F)c(Cl)c1)N1CCc2oncc2C1 [Compound 26, N-(3-Chloro-4-(trifluoromethyl)phenyl)-6,7-dihydroisoxazolo[4,5-c]pyridine-5(4H)-carboxamide] |
| 0.5 to 5 µM | O=C(Nc1ccc(Cl)c(Cl)c1)N1CCc2cccc(Cl)c2C1 [Compound 139, 8-Chloro-N-(3,4-dichlorophenyl)-3,4-dihydroisoquinoline-2(1H)-carboxamide] |
| 0.5 to 5 µM | O=C(Nc1ccc(Cl)c(Cl)c1)N1CCc2ccncc2C1 [Compound 15, N-(3,4-Dichlorophenyl)-3,4-dihydro-2,7-naphthyridine-2(1H)-carboxamide] |
| < 0.5 µM | O=C(Nc1ccc(Cl)c(Cl)c1)N1CCc2cc(F)c(F)cc2C1 [Compound 106, N-(3,4-Dichlorophenyl)-6,7-difluoro-3,4-dihydroisoquinoline-2(1H)-carboxamide] |
| 0.5 to 5 µM | Cc1cccc2c1CCN(C(=O)Nc1ccc(Cl)c(Cl)c1)C2 [Compound 58, N-(3,4-Dichlorophenyl)-5-methyl-3,4-dihydroisoquinoline-2(1H)-carboxamide] |
| 0.5 to 5 µM | Cc1cccc2c1CN(C(=O)Nc1ccc(Cl)c(Cl)c1)CC2 [Compound 27, N-(3,4-Dichlorophenyl)-8-methyl-3,4-dihydroisoquinoline-2(1H)-carboxamide] |
| 0.5 to 5 µM | N#Cc1cc2c(cn1)CCN(C(=O)Nc1ccc(Cl)c(Cl)c1)C2 [Compound 103, 7-Cyano-N-(3,4-dichlorophenyl)-3,4-dihydro-2,6-naphthyridine-2(1H)-carboxamide] |
| < 0.5 µM | O=C(Nc1ccc(C(F)(F)F)c(Cl)c1)N1CCc2c(F)cccc2C1 [Compound 36, N-(3-Chloro-4-(trifluoromethyl)phenyl)-5-fluoro-3,4-dihydroisoquinoline-2(1H)-carboxamide] |
| 0.5 to 5 µM | O=C(Nc1ccc(Cl)c(Cl)c1)N1CCc2c(Cl)cccc2C1 [Compound 55, 5-Chloro-N-(3,4-dichlorophenyl)-3,4-dihydroisoquinoline-2(1H)-carboxamide] |
| 0.5 to 5 µM | COC(=O)c1ccc2c(c1)CN(C(=O)Nc1ccc(Cl)c(Cl)c1)CC2 [Compound 131, Methyl 2-((3,4-dichlorophenyl)carbamoyl)-1,2,3,4-tetrahydroisoquinoline-7-carboxylate] |
| < 0.5 µM | O=C(Nc1ccc(C(F)(F)F)c(Cl)c1)N1CCc2cnccc2C1 [Compound 14, N-(3-Chloro-4-(trifluoromethyl)phenyl)-3,4-dihydro-2,6-naphthyridine-2(1H)-carboxamide] |
| 0.5 to 5 µM | O=C(Nc1ccc(Cl)c(Cl)c1)N1CCc2ccccc2C1 [Compound 81, N-(3,4-Dichlorophenyl)-3,4-dihydroisoquinoline-2(1H)-carboxamide] |
| 0.5 to 5 µM | O=C(Nc1ccc(C(F)(F)F)c(Cl)c1)N1CCc2cc(Cl)ncc2C1 [Compound 91, 6-Chloro-N-(3-chloro-4-(trifluoromethyl)phenyl)-3,4-dihydro-2,7-naphthyridine-2(1H)-carboxamide] |
| 0.5 to 5 µM | N#Cc1ccc2c(c1)CCN(C(=O)Nc1ccc(Cl)c(C(F)(F)F)c1)C2 [Compound 38, N-(4-Chloro-3-(trifluoromethyl)phenyl)-6-cyano-3,4-dihydroisoquinoline-2(1H)-carboxamide] |
| 0.5 to 5 µM | N#Cc1cccc2c1CN(C(=O)Nc1ccc(C(F)(F)F)c(Cl)c1)CC2 [Compound 132, N-(3-Chloro-4-(trifluoromethyl)phenyl)-8-cyano-3,4-dihydroisoquinoline-2(1H)-carboxamide] |
| 0.5 to 5 µM | COc1ccc2c(c1)CN(C(=O)Nc1ccc(Cl)c(Cl)c1)CC2 [Compound 61, N-(3,4-Dichlorophenyl)-7-methoxy-3,4-dihydroisoquinoline-2(1H)-carboxamide] |
| < 0.5 µM | O=C(Nc1ccc(Cl)c(C(F)(F)F)c1)N1CCc2cc(Cl)ccc2C1 [Compound 53, 6-Chloro-N-(4-chloro-3-(trifluoromethyl)phenyl)-3,4-dihydroisoquinoline-2(1H)-carboxamide] |
| 0.5 to 5 µM | O=C(Nc1ccc(Cl)c(Cl)c1)N1CCc2nocc2C1 [Compound 98, N-(3,4-Dichlorophenyl)-6,7-dihydroisoxazolo[4,3-c]pyridine-5(4H)-carboxamide] |
| < 0.5 µM | O=C(Nc1ccc(Cl)c(Cl)c1)N1CCc2nc(F)ccc2C1 [Compound 123, N-(3,4-Dichlorophenyl)-2-fluoro-7,8-dihydro-1,6-naphthyridine-6(5H)-carboxamide] |
| 0.5 to 5 µM | O=C(Nc1ccc(Cl)c(C(F)(F)F)c1)N1CCc2cc(=O)[nH]cc2C1 [Compound 89, N-(4-chloro-3-(trifluoromethyl)phenyl)-6-oxo-3,4,6,7-tetrahydro-2,7-naphthyridine-2(1H)-carboxamide] |
